Reference: ChEMBL document CHEMBL1132525, “Indolocarbazole poisons of human topoisomerase I: regioisomeric analogues of ED-110” (Bioorg Med Chem Lett, 1999)

Assays:
HT-29 [1] = test: In vitro antitumor activity against human solid tumor colon cell line HT-29; type: functional, cell-based
DU-145 [2] = test: In vitro antitumor activity against human solid tumor prostate cell line DU-145; type: functional, cell-based
OVCAR-3 [3] = test: In vitro antitumor activity against human solid tumor ovarian cell line OVCAR-3; type: functional, cell-based
DNA topoisomerase 1 = biological target: T1, DNA topoisomerase 1 (Homo sapiens, UniProt P11387); test: Concentration required to inhibit human DNA topoisomerase I (Topo I)
T1 sequence (P11387 whole entry): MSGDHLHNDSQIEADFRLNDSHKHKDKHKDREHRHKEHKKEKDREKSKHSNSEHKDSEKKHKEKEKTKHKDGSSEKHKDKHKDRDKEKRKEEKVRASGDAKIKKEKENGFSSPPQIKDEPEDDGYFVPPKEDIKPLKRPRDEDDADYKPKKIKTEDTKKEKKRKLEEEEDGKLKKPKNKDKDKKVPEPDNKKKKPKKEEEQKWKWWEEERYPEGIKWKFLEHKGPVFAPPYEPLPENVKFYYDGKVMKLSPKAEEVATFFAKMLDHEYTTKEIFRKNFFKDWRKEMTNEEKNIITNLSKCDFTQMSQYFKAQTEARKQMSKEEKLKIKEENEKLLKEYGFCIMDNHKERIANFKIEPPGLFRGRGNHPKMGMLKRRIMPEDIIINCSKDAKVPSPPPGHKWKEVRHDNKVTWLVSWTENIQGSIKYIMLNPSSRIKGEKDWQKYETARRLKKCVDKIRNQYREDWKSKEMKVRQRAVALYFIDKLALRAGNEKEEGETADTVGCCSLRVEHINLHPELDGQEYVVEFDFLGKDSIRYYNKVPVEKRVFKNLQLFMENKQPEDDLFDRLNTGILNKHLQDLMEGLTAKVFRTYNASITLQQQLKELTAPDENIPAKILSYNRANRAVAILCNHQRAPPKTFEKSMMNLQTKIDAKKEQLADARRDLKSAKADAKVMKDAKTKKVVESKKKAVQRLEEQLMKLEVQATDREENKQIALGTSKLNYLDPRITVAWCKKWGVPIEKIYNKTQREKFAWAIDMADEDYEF

OVCAR-3 [4] = test: In vitro antitumor activity against human solid tumor ovarian cell line OVCAR-3; No active; type: functional, cell-based
HT-29 [5] = test: In vitro antitumor activity against human solid tumor colon cell line HT-29; No active; type: functional, cell-based
DU-145 [6] = test: In vitro antitumor activity against human solid tumor prostate cell line DU-145; No active; type: functional, cell-based

SMILES	IC50 (HT-29 [1])	IC50 (DU-145 [2])	IC50 (OVCAR-3 [3])	IC50 (DNA topoisomerase 1)	IC50 (OVCAR-3 [4])	IC50 (HT-29 [5])	IC50 (DU-145 [6])
O=C1NC(=O)c2c1c1c3cccc(O)c3[nH]c1c1c2c2cccc(O)c2n1C1OC(CO)C(O)C(O)C1O (centres undefined)	> 10000 nM	2300 nM	920 nM	13000 nM	–	–	–
O=C1NC(=O)c2c1c1c3ccc(O)cc3[nH]c1c1c2c2ccc(O)cc2n1C1OC(CO)C(O)C(O)C1O (centres undefined)	9700 nM	120 nM	190 nM	2300 nM	–	–	–
O=C1NC(=O)C(c2cn(C3OC(CO)C(O)C(O)C3O)c3c(O)cccc23)=C1c1c[nH]c2c(O)cccc12 (centres undefined)	–	–	–	–	Not Active	Not Active	Not Active
O=C1NC(=O)c2c1c1c([nH]c3cccc(O)c31)c1c2c2c(O)cccc2n1C1OC(CO)C(O)C(O)C1O (centres undefined)	1300 nM	950 nM	440 nM	36000 nM	–	–	–
O=C1NC(=O)c2c1c1c3cc(O)ccc3[nH]c1c1c2c2cc(O)ccc2n1C1OC(CO)C(O)C(O)C1O (centres undefined)	840 nM	67 nM	190 nM	1500 nM	–	–	–
